The target of this assay is PRMT5/MEP50 protein complex (Homo sapiens (Human), UniProt O14744). Briefly: PRMT5 biochemical assay (3H-SAM methylation of H4(1-21) peptide, filter plate scintillation counting). The following applies: PRMT5 enzyme inhibition; 10 nM PRMT5/MEP50 complex, 200 nM H4(1-21) peptide, 1 uM SAM, 25 minute incubation at room temperature. How it is done: Following dilution, 1 ul was added to an empty 96-well microtiter plate. PRMT5/MEP50 protein complex was combined with H4(1-21) peptide ([…]) in PRMT5 assay buffer (50 mM Tris pH 8.5, 50 mM NaCl, 5 mM MgCl2, 1 mM EDTA, 1 mM TCEP) and 44 ul was added to the microtiter plate containing compound. S-Adenosyl-L-methionine (SAM) was prepared by combining ^3H labelled SAM with unlabelled SAM in PRMT5 assay buffer such that the final SAM concentration was 10 uM and the specific activity was 0.2 uCi/ul. The reaction was initiated by adding 5 ul of SAM stock to the microtiter plate. The final reaction conditions were 10 nM PRMT5/MEP50 complex, 200 nM peptide and 1 uM SAM. Following a 25 minute incubation at room temperature, the reaction was stopped with the addition of 100 uL of 20% TCA. The 3H-peptide product was captured using a 96-well filter plate (MSIPN4B, Millipore) and washed 5 times with PBS buffer. Scintillation fluid (100 ul) was added to the dried filter plate and counted in a liquid scintillation counter. IC50 values were determined by fitting the data to the standard 4-parameter dose response equation using Pfizer proprietary software.
In the final construct PRMT5 ORF was under control of polyhedrin promoter (polH) while MEP50 ORF was under control of p10 promoter.
Viruses were generated using standard Bac-to-Bac viral generation protocols (Life Technologies) and amplified to high-titer passage two (P2) stocks. Protein over expression was conducted in exponentially growing Sf21 cells infected at 2×106 with P2 viral stock at MOI=1 of PRMT5-Mep50 dual construct virus and Mep50 construct virus at 1:1 ratio. The co-expression protocol was used to supplement additional Mep50 for FlagPRMT5-Mep50 heterodimer formation. Cells were harvested at 72 h post infection by centrifugation and frozen pellet was stored at −80° C.
FlagPRMT5-Mep50 complex was purified from cell lysate using Flag affinity chromatography. Cell were lyzed in 50 mM Tris 7.5, 200 mM NaCl, 10% glycerol, 0.25 mM TCEP supplemented with EDTA-free protease inhibitor cocktail (Roche). 1.5 ml of lysis buffer was added per 1 g of frozen pellet. The clarified lysate was obtained by centrifugation of cell lysate at 10,000 g for 1 h at 4 C. 5 ml of Anti-FLAG M2 Agarose (Sigma) […] was added to the clarified lysate to isolate FlagPRMT5-Mep50. Following batch binding for 3 h at 4 C, Flag resin bound to FlagPRMT5-Mep50 washed with 20 column volumes (CV) of 50 mM Tris 7.5, 200 mM NaCl, 10% glycerol, 0.25 mM TCEP followed by elution of FlagPRMT5-Mep50 complex using 3 CV of 50 mM Tris 7.5, 200 mM NaCl, 10% glycerol, 0.25 mM TCEP supplemented with 200 ug/ml of FLAG Peptide ([…]). […] Peak fractions containing FlagPRMT5-Mep50 complex were concentrated to 1.6 mg/ml, flash frozen in small aliquots using liquid nitrogen and stored at −80° C.

Chain of PRMT5/MEP50 protein complex (O14744 other isoform, or with tags, fused parts or gaps): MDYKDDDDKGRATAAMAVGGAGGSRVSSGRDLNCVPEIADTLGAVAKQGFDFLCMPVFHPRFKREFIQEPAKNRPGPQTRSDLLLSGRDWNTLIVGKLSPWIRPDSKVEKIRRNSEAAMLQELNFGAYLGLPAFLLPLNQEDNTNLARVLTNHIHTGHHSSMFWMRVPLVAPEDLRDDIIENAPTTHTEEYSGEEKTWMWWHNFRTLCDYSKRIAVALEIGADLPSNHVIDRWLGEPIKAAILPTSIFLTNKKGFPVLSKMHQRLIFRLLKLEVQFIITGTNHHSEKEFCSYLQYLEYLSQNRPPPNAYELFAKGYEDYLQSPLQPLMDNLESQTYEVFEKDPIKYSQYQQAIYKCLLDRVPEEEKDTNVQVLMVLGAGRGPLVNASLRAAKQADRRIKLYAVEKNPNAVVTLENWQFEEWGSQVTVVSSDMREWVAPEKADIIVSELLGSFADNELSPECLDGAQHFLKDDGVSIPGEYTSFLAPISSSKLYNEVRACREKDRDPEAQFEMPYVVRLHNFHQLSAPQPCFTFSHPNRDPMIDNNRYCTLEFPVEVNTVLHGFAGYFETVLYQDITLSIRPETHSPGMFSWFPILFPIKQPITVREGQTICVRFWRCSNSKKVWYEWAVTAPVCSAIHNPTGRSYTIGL
Chain of PRMT5/MEP50 protein complex (Q9BQA1 whole entry partner): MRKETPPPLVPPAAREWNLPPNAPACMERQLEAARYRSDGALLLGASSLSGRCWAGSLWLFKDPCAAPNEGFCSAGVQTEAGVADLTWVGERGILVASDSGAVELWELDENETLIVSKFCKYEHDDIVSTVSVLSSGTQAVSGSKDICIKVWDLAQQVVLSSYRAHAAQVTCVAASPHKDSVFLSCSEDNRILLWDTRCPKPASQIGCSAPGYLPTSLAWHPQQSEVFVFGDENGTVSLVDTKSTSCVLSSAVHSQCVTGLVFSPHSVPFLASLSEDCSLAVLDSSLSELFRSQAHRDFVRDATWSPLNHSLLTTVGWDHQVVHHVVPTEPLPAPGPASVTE

Consider `Cc1ncnc2c1ccn2[C@@H]1O[C@H](C(O)CS(=O)(=O)c2ccccc2)[C@@H](O)[C@H]1O` (stereo in doubt) [Example 24, (2S,3S,4R,5R)-2-((R)-1-hydroxy-2-(phenylsulfonyl)ethyl)-5-(4-methyl-7H-pyrrolo[2,3-d]pyrimidin-7-yl)tetrahydrofuran-3,4-diol], for which the IC50 – broadly, the point on the concentration scale where inhibition reaches its midpoint – turned out to be 30800 nM.
Regarding `CC[C@@H](O)[C@H]1O[C@@H](n2cnc3c(N)ncnc32)[C@H](O)[C@@H]1O` [Example 3, (2R,3R,4S,5R)-2-(6-amino-9H-purin-9-yl)-5-((R)-1-hydroxypropyl)tetrahydrofuran-3,4-diol], it took 333 nM to reach half-maximal inhibition (IC50).
The compound `CC[C@H](O)[C@H]1O[C@@H](n2cnc3c(N)ncnc32)[C@H](O)[C@@H]1O` [Example 4, (2R,3R,4S,5R)-2-(6-amino-9H-purin-9-yl)-5-((S)-1-hydroxypropyl)tetrahydrofuran-3,4-diol] came in with an IC50 of 44100 nM.
Next, `CCC[C@@H](O)[C@H]1O[C@@H](n2cnc3c(N)ncnc32)[C@H](O)[C@@H]1O` [Example 5, (2R,3R,4S,5R)-2-(6-amino-9H-purin-9-yl)-5-((R)-1-hydroxybutyl)tetrahydrofuran-3,4-diol]: 159 nM; `CCC[C@H](O)[C@H]1O[C@@H](n2cnc3c(N)ncnc32)[C@H](O)[C@@H]1O` [Example 6, (2R,3R,4S,5R)-2-(6-amino-9H-purin-9-yl)-5-((S)-1-hydroxybutyl)tetrahydrofuran-3,4-diol]: 21100 nM.
Turning to `CC(C)C[C@@H](O)[C@H]1O[C@@H](n2cnc3c(N)ncnc32)[C@H](O)[C@@H]1O` [Example 7, (2R,3R,4S,5R)-2-(6-amino-9H-purin-9-yl)-5-((R)-1-hydroxy-3-methylbutyl)tetrahydrofuran-3,4-diol], inhibition was half-maximal at 1830 nM (IC50).
`CC(C)C[C@H](O)[C@H]1O[C@@H](n2cnc3c(N)ncnc32)[C@H](O)[C@@H]1O` [Example 8, (2R,3R,4S,5R)-2-(6-amino-9H-purin-9-yl)-5-((S)-1-hydroxy-3-methylbutyl)tetrahydrofuran-3,4-diol]: the midpoint of inhibition, the IC50, lay at 17900 nM.
Next, `Cc1ncnc2c1ccn2[C@@H]1O[C@H]([C@H](O)c2ccnc(N(C)C)c2)[C@@H](O)[C@H]1O` [Example 14, (2R,3S,4R,5R)-2-((R)-(2-(dimethylamino)pyridin-4-yl)(hydroxy)methyl)-5-(4-methyl-7H-pyrrolo[2,3-d]pyrimidin-7-yl)tetrahydrofuran-3,4-diol]: 17 nM.
Regarding `Cc1ncnc2c1ccn2[C@@H]1O[C@H]([C@H](O)c2ccc3cnn(C)c3c2)[C@@H](O)[C@H]1O` [Example 15, (2R,3S,4R,5R)-2-((R)-hydroxy(1-methyl-1H-indazol-6-yl)methyl)-5-(4-methyl-7H-pyrrolo[2,3-d]pyrimidin-7-yl)tetrahydrofuran-3,4-diol], the IC50 came to 39 nM.
`Cc1ncnc2c1ccn2[C@@H]1O[C@H]([C@H](O)c2cccc(C(F)(F)F)c2)[C@@H](O)[C@H]1O` [Example 16, (2R,3S,4R,5R)-2-((R)-hydroxy(3-(trifluoromethyl)phenyl)methyl)-5-(4-methyl-7H-pyrrolo[2,3-d]pyrimidin-7-yl)tetrahydrofuran-3,4-diol]: the IC50 turned out to be 23 nM.
Consider `Cc1ncnc2c1ccn2[C@@H]1OC([C@H](O)c2cc(F)cc(C(F)(F)F)c2)[C@@H](O)[C@H]1O` (stereo partly drawn) [Example 17, (3S,4R,5R)-2-((3-fluoro-5-(trifluoromethyl)phenyl)(hydroxy)methyl)-5-(4-methyl-7H-pyrrolo[2,3-d]pyrimidin-7-yl)tetrahydrofuran-3,4-diol], for which half-maximal inhibition (IC50) was put at 2270 nM.
As for `Cc1ncnc2c1ccn2[C@@H]1O[C@H]([C@H](O)c2ccc(F)c(C(F)(F)F)c2)[C@@H](O)[C@H]1O` [Example 18, (2R,3S,4R,5R)-2-((R)-(4-fluoro-3-(trifluoromethyl)phenyl)(hydroxy)methyl)-5-(4-methyl-7H-pyrrolo[2,3-d]pyrimidin-7-yl)tetrahydrofuran-3,4-diol], the IC50 was 4 nM.
The compound `Cc1ncnc2c1ccn2[C@@H]1O[C@H]([C@H](O)c2cccc(S(C)(=O)=O)c2)[C@@H](O)[C@H]1O` [Example 19, (2R,3S,4R,5R)-2-((R)-hydroxy(3-(methylsulfonyl)phenyl)methyl)-5-(4-methyl-7H-pyrrolo[2,3-d]pyrimidin-7-yl)tetrahydrofuran-3,4-diol] came in with an IC50 of 65 nM.
`Cc1ncnc2c1ccn2[C@@H]1O[C@H]([C@H](O)c2ccc(S(C)(=O)=O)cc2)[C@@H](O)[C@H]1O` [Example 20, (2R,3S,4R,5R)-2-((R)-hydroxy(4-(methylsulfonyl)phenyl)methyl)-5-(4-methyl-7H-pyrrolo[2,3-d]pyrimidin-7-yl)tetrahydrofuran-3,4-diol] registered an IC50 of 54 nM.
The compound `Cc1ncnc2c1ccn2[C@@H]1O[C@H]([C@H](O)c2ccc3occ(C(F)F)c3c2)[C@@H](O)[C@H]1O` [Example 21, (2R,3S,4R,5R)-2-((R)-(3-(difluoromethyl)benzofuran-5-yl)(hydroxy)methyl)-5-(4-methyl-7H-pyrrolo[2,3-d]pyrimidin-7-yl)tetrahydrofuran-3,4-diol] gave an IC50 of 33 nM.
Next, `Cc1ncnc2c1ccn2[C@@H]1O[C@H]([C@H](O)c2ccc3ncn(C(F)F)c3c2)[C@@H](O)[C@H]1O` [Example 22, (2R,3S,4R,5R)-2-((R)-(1-(difluoromethyl)-1H-benzo[d]imidazol-6-yl)(hydroxy)methyl)-5-(4-methyl-7H-pyrrolo[2,3-d]pyrimidin-7-yl)tetrahydrofuran-3,4-diol]: 108 nM; `Cc1ncnc2c1ccn2[C@@H]1O[C@H]([C@H](O)c2ccc3c(c2)ncn3C(F)F)[C@@H](O)[C@H]1O` [Example 23, (2R,3S,4R,5R)-2-((R)-(1-(difluoromethyl)-1H-benzo[d]imidazol-5-yl)(hydroxy)methyl)-5-(4-methyl-7H-pyrrolo[2,3-d]pyrimidin-7-yl)tetrahydrofuran-3,4-diol]: 793 nM.
Then `Cc1ncnc2c1ccn2[C@@H]1O[C@H]([C@H](O)Cc2ccccc2)[C@@H](O)[C@H]1O` [Example 28, (2R,3S,4R,5R)-2-((R)-1-hydroxy-2-phenylethyl)-5-(4-methyl-7H-pyrrolo[2,3-d]pyrimidin-7-yl)tetrahydrofuran-3,4-diol], with 11200 nM; and `Cc1ncnc2c1ccn2[C@@H]1O[C@H]([C@@H](O)Cc2ccccc2)[C@@H](O)[C@H]1O` [Example 29, (2R,3S,4R,5R)-2-((S)-1-hydroxy-2-phenylethyl)-5-(4-methyl-7H-pyrrolo[2,3-d]pyrimidin-7-yl)tetrahydrofuran-3,4-diol], with 200000 nM.
`Cc1ncnc2c1ccn2[C@@H]1O[C@H]([C@H](O)CCc2ccccc2)[C@@H](O)[C@H]1O` [Example 30, (2R,3S,4R,5R)-2-((R)-1-hydroxy-3-phenylpropyl)-5-(4-methyl-7H-pyrrolo[2,3-d]pyrimidin-7-yl)tetrahydrofuran-3,4-diol]: 752 nM corresponded to half-maximal inhibition (IC50).
Then `Cc1ncnc2c1ccn2[C@@H]1O[C@H]([C@@H](O)CCc2ccccc2)[C@@H](O)[C@H]1O` [Example 31, (2R,3S,4R,5R)-2-((S)-1-hydroxy-3-phenylpropyl)-5-(4-methyl-7H-pyrrolo[2,3-d]pyrimidin-7-yl)tetrahydrofuran-3,4-diol], with 61700 nM.

For the origin of these results see patent publication US10428104B2, “Substituted nucleoside derivatives useful as anticancer agents” (Pfizer Inc., priority 2015, dated 2019).
